In patent US7399761B2, “Phthalazine derivatives with angiogenesis inhibiting activity” (Novartis AG, priority 2001, dated 2008):

How the values were obtained:
[1] = target: T1, Cyp2C8 (Homo sapiens, UniProt P10632); test: CyP450-Inhibition, recombinant Cytochrome P450 isoenzymes, fluorometric assay; assay type: in vitro ADME; conditions: for IC50: recombinant CyP 450 enzyme, fluorescence-labelled substrate
T1 construct: host or cells: insect cells (named in the general description as the expression system for P450 cDNAs)
T1 sequence (P10632 1-490): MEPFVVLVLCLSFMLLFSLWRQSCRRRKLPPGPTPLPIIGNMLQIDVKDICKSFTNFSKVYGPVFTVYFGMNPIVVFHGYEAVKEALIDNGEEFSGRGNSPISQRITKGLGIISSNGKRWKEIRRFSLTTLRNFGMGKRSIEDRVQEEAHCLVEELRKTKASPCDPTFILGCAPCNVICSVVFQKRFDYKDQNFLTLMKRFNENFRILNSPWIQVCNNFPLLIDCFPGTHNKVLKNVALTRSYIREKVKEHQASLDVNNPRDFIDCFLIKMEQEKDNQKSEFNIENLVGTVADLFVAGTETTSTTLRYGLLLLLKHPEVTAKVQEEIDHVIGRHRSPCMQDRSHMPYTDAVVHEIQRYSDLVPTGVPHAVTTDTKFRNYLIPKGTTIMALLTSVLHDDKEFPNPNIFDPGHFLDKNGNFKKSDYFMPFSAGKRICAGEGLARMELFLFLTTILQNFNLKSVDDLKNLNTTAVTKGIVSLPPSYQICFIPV
Description: (§1) This can be shown according to the following test system: Human liver microsomes or high level expression of cDNAs encoding Cytochrome P450 in insect cells provide a flexible source of materials for several in vitro measurement methods. A microtiter plate-based, direct fluorometric assay for the activities of any one or more of the principal drug metabolizing enzymes CYP1A2, CYP2C8, CYP2C9, CYP2C19, CYP2D6 and/or CYP3A4 is used in order to assess the potential for drug candidates to inhibit cytochrome P450.
(§2) Fluorescent marker substrates are incubated at concentrations close to their Michaelis-Men-ten affinity constant, Km. Inhibitors are tested in the 1 to 10 μM concentration range. 50% inhibition concentration (IC50 values) are estimated by non-linear regression of a two parameter model equation where the lower data limit is 0, i.e. the data are background corrected, and the upper data limit is 100, i.e. the data are range corrected. The equation assumes that y falls with increasing x. […] Extrapolation or interpolation of IC50 values beyond the concentration range studied are not provided.
(§3) Details for the assays and the technology that forms the basis for the assays are known (see C. L. Crespi et al., Analytical Biochemistry 248, 188-190 (1997), and CIL. Crespi et al., J. Pharmacol. Toxicol. Methods 44, 325-331 (2000), and the references mentioend therein). For example, 3-cyano-7-ethoxycoumarin is used as fluorescent substrate for CyP1A2, CYP2C9, CYP2C19 and CYP2D6, 7-methoxy-4-trifluoromethylcoumarin is used for CYP2C9, resorufin benzyl ether for CYP3A4, 3-82-(N,N-diethyl-N-methylammonium)ethyl]-7-methoxy-4-methylcoumarin for CYP2D6.
(§4) By the help of recombinant CyP 450 enzymes, the corresponding IC50 values for the compounds of formula I are determined. […] Description of the Assay: Fluorescence-labelled substrate compounds are incubated with different concentrations of test compound of formula I with recombinant Cytochrome P450 Isoenzymes. […] For details see above in the general description.

[2] = target: T2, Cyp2C9 (Homo sapiens, UniProt P11712); test: as above; assay type: in vitro ADME; conditions: for IC50: recombinant CyP 450 enzyme, fluorescence-labelled substrate
T2 construct: host or cells: insect cells (named in the general description as the expression system for P450 cDNAs)
Description: as §1, §2, §3, §4

[3] = target: T3, Cyp3A4 (Homo sapiens, UniProt P08684); test: as above; assay type: in vitro ADME; conditions: for IC50: recombinant CyP 450 enzyme, fluorescence-labelled substrate
T3 construct: host or cells: insect cells (named in the general description as the expression system for P450 cDNAs)
Description: as §1, §2, §3, §4

[4] = target: T4, Flt-1 VEGF-receptor tyrosine kinase (Homo sapiens, UniProt P17948); test: Test for activity against Flt-1 VEGF-receptor tyrosine kinase; assay type: biochemical; conditions: kinase domain of Flt-1, poly(Glu,Tyr) 4:1, 8 μM [33P]-ATP, 15 minutes at room temperature
T4 construct: 10 ng of the kinase domain of Flt-1
T4 sequence (P17948 827-1158 limits assumed): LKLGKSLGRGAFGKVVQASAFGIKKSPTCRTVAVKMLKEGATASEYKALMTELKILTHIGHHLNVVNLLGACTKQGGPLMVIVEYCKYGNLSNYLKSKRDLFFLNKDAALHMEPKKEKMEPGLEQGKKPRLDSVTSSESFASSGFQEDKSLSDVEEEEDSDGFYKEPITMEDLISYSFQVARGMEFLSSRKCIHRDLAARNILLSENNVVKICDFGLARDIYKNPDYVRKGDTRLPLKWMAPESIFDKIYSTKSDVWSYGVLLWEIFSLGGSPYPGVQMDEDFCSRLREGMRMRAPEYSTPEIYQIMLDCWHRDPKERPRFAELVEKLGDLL
Description: Test for activity against VEGF-receptor tyrosine kinase: the test is conducted using Flt-1 VEGF-receptor tyrosine kinase. The detailed procedure is as follows: 30 μl kinase solution (10 ng of the kinase domain of Flt-1, Shibuya et al., Oncogene 5, 519-24 [1990]) in 20 mM Tris.HCl pH 7.6, 3 mM manganese dichloride (MnCl2), 3 mM magnesium chloride (MgCl2) and 3 μg/ml poly(Glu,Tyr) 4:1 (Sigma, Buchs, Switzerland), 8 μM [^33P]-ATP (0.2 μCi/batch), 1% dimethyl sulfoxide, and 0 to 50 μM of the compound to be tested are incubated together for 15 minutes at room temperature. The reaction is then ended by the addition of 10 μl 0.25 M ethylenediaminetetraacetate (EDTA) pH 7. Using a multichannel dispenser (LAB SYSTEMS, USA), an aliquot of 20 μl is applied to a PVDF (=polyvinyl difluoride) Immobilon P membrane (Millipore, USA), which is incorporated into a Millipore microtitre filter manifold, and connected to a vacuum. Following complete elimination of the liquid, the membrane is washed 4 times successively in a bath containing 0.5% phosphoric acid (H3PO4), incubated for 10 minutes each time while shaking, then mounted in a Hewlett Packard TopCount Manifold and the radioactivity measured after the addition of 10 μl Microscint® (β-scintillation counter liquid; Packard USA). […]
The IC50 values determined are given below, insofar as they have been accurately determined: […]

T2 sequence (P11712 whole entry): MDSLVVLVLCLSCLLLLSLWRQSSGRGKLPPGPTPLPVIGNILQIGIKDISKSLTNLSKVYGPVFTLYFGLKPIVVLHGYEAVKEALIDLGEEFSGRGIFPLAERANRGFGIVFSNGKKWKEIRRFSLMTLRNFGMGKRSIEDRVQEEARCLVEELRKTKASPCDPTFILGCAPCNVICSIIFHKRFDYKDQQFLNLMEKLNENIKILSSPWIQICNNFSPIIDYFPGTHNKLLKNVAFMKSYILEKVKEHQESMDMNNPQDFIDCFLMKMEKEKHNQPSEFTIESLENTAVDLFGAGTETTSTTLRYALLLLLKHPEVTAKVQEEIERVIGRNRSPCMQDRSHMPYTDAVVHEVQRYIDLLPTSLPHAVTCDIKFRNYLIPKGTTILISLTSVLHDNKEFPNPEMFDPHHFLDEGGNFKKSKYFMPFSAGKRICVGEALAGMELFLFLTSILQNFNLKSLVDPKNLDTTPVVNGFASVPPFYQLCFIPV
T3 sequence (P08684 whole entry): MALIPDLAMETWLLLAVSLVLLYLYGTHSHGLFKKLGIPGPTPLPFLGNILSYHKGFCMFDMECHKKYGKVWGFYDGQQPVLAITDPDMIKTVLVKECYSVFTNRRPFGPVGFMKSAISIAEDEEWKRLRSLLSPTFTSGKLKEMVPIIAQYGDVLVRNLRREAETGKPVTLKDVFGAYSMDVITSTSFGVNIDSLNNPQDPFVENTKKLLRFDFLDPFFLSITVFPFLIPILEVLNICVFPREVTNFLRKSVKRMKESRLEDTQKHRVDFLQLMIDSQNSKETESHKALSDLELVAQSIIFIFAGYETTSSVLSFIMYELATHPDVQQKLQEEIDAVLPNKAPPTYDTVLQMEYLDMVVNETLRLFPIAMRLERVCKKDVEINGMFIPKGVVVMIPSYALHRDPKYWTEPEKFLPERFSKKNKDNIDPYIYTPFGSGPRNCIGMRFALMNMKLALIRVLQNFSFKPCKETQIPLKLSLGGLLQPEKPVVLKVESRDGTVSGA

Row | IC50 [1] | IC50 [2] | IC50 [3] | IC50 [4] | Structure (SMILES) | other results
1 | 5 µM | < 1 µM | < 1 µM |  | CCc1ccc(Nc2nnc(Cc3ccncc3)c3ccccc23)cc1Br [WO 00/59509 (Ex. 14 q), reference compound] | 
2 |  |  |  | 1.9 µM | CCc1ccc(Nc2nnc(Cc3ccnc(OC)c3)c3ccccc23)cc1Br [Example 2 d), 1-(3-Bromo-4ethyl-anilino)-4-[2-methoxy-(pyridin-4-yl)-methyl]-phthalazine] | 
3 |  |  |  |  | CC(C)[C@H]1CC[C@H](Nc2nnc(Cc3ccnc(O)c3)c3ccccc23)CC1 [Example 1, trans 1-(4-Isopropyl-cyclohexylamino)4-[2-hydroxy-(pyridin-4-yl)methyl]-phthalazine] | melting point: 266 to 267 °C (dec.)
4 | > 10 µM | 3.5 µM | 2.8 µM |  | CCc1ccc(Nc2nnc(Cc3ccc(=O)[nH]c3)c3ccccc23)cc1Br [Ex. 8] | lower inhibition when compared with Ex. 14 q from WO 00/59509 ([1]; ratio of IC50 values): more than two-fold; lower inhibition when compared with Ex. 14 q from WO 00/59509 ([2]; ratio of IC50 values): more than two-fold; lower inhibition when compared with Ex. 14 q from WO 00/59509 ([3]; ratio of IC50 values): more than two-fold
5 |  |  |  | 1.2 µM | COc1cc(Cc2nnc(N[C@H]3CC[C@H](C(C)C)CC3)c3ccccc23)ccn1 [Example 1 d)] | 
